From paper PMC2254147, “Novel Triazine JPC-2067-B Inhibits Toxoplasma gondii In Vitro and In Vivo” (PLoS Neglected Tropical Diseases, 2008)

Molecular target: T1, TgDHFR (Toxoplasma gondii, UniProt Q07422)
T1 construct: DHFR from T. gondii was isolated directly from RH strain T. gondii grown in culture; endogenous in cells; host or cells: RH strain T. gondii grown on CHO/dhfr- cells
T1 sequence (Q07422 1-610): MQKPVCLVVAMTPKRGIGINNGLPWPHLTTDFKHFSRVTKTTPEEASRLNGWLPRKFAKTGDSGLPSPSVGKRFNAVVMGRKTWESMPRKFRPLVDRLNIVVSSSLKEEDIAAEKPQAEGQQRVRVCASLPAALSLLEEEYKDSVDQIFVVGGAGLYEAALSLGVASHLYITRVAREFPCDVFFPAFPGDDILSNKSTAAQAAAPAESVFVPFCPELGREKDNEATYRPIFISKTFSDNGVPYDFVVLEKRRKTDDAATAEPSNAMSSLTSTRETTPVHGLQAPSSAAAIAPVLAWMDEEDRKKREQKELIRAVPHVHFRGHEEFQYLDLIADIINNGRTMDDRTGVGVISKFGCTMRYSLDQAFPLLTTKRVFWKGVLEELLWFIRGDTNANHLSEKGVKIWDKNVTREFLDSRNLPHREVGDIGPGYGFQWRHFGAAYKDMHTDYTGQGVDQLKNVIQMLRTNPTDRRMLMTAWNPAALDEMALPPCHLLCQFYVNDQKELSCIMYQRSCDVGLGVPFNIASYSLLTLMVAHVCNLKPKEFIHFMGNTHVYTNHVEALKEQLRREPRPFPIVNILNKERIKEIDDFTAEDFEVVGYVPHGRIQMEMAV
Test: biochemical
Assay type: biochemical
Settings: 23°C
Excerpt: DHFR from T. gondii prepared as above was also directly compared to purified recombinant P. falciparum DHFR (pfDHFR) and purified recombinant human DHFR (hDHFR). The hDHFR was from pDFR plasmid. The enzyme was purified following ammonium sulfate precipitation, methotrexate:agarose affinity chromatography, and finally a Superdex 200 size exclusion column. The pfDHFR isolation methods were those reported previously,[44]. […] The same buffer as used in the other assays comparing T. gondii DHFR with DHFRs from rat liver P. carinii and M. avium intracellulare was used but the maximal activity, temperature, and length of observation were adjusted for assays on the specific plate reader. […] The reaction was setup at 23°C, the plate loaded, and the OD340 recorded at 20 second intervals for 10 minutes. The first 8 minutes were used to generate linear fit slopes in Excel. […] Results are expressed as the percent of control activity versus log concentration of inhibitor. Prism 5.0 was used to generate curves from 12 different concentrations of inhibitor using a non-linear fit method.

## CC1(C)N=C(N)N=C(N)N1OCCCOc1ccc(OC(F)(F)F)cc1Cl [JPC-2067-B, 4,6-diamino-1,2-dihydro-2,2-dimethyl-1-(3′(2-chloro-, 4-trifluoromethoxyphenoxy)propyloxy)-1,3,5-triazine]
Tg lysate, (95% Confidence Intervals)
  IC50: 32 nM
High throughput method
  Ratio of IC50 values hDHFR/tgDHFR: 4.6
